The subject of this assay is Oryctolagus cuniculus. As to the kind of experiment: Progestational activity in immature rabbit assessed as proliferation of uterus administered intramuscularly by haematoxylin and eosin staining-based assay. The format is functional.

These results are taken from ChEMBL document CHEMBL3271998, “Quantitative structure-activity relationships among steroids. Investigations of the use of steric parameters” (1976).

As to `C=C1C[C@H]2[C@@H]3C=C(N=[N+]=[N-])C4=CC(=O)CC[C@]4(C)[C@H]3CC[C@]2(C)[C@@]1(OC(C)=O)C(C)=O`, the “log(activity)” value was 1.3.

As to `C=C1C[C@H]2[C@@H]3C=C(OC)C4=CC(=O)CC[C@]4(C)[C@H]3CC[C@]2(C)[C@@]1(OC(C)=O)C(C)=O`, the “log(activity)” value was found to be 1.15.

For `C=C1C[C@H]2[C@@H]3C=C(OC(C)=O)C4=CC(=O)CC[C@]4(C)[C@H]3CC[C@]2(C)[C@@]1(OC(C)=O)C(C)=O`, the “log(activity)” value is -0.7.

On to `C=C1C[C@H]2[C@@H]3C=C(C#N)C4=CC(=O)CC[C@]4(C)[C@H]3CC[C@]2(C)[C@@]1(OC(C)=O)C(C)=O`, for which the “log(activity)” value is recorded as 0.78.

On to `C=C1C[C@H]2[C@@H]3C=C(F)C4=CC(=O)CC[C@]4(C)[C@H]3CC[C@]2(C)[C@@]1(OC(C)=O)C(C)=O`, for which the “log(activity)” value was 1.74.

Take `C=C1C[C@H]2[C@@H]3C=C(Cl)C4=CC(=O)CC[C@]4(C)[C@H]3CC[C@]2(C)[C@@]1(OC(C)=O)C(C)=O`: the “log(activity)” value turned out to be 1.89.

In the case of `C=C1C[C@H]2[C@@H]3C=CC4=CC(=O)CC[C@]4(C)[C@H]3CC[C@]2(C)[C@@]1(OC(C)=O)C(C)=O`, the “log(activity)” value is listed as 0.

With `C=C1C[C@H]2[C@@H]3C=C(C(F)(F)F)C4=CC(=O)CC[C@]4(C)[C@H]3CC[C@]2(C)[C@@]1(OC(C)=O)C(C)=O`, the “log(activity)” value stood at 1.04.

As for `C=C1C[C@H]2[C@@H]3C=C(SC#N)C4=CC(=O)CC[C@]4(C)[C@H]3CC[C@]2(C)[C@@]1(OC(C)=O)C(C)=O`, the “log(activity)” value was found to be 1.08.

As for `C=C1C[C@H]2[C@@H]3C=C(Br)C4=CC(=O)CC[C@]4(C)[C@H]3CC[C@]2(C)[C@@]1(OC(C)=O)C(C)=O`, the “log(activity)” value amounted to 1.62.

In the case of `C=C1C[C@H]2[C@@H]3C=C(C=O)C4=CC(=O)CC[C@]4(C)[C@H]3CC[C@]2(C)[C@@]1(OC(C)=O)C(C)=O`, the “log(activity)” value came out at 0.

As for `C=C1C[C@H]2[C@@H]3C=C(NC(C)=O)C4=CC(=O)CC[C@]4(C)[C@H]3CC[C@]2(C)[C@@]1(OC(C)=O)C(C)=O`, the “log(activity)” value is listed as -1.

Take `C=C1C[C@H]2[C@@H]3C=C(C)C4=CC(=O)CC[C@]4(C)[C@H]3CC[C@]2(C)[C@@]1(OC(C)=O)C(C)=O` [MELENGESTROL ACETATE]: the “log(activity)” value was found to be 1.96.

Turning to `C=C1C[C@H]2[C@@H]3C=C(OCC)C4=CC(=O)CC[C@]4(C)[C@H]3CC[C@]2(C)[C@@]1(OC(C)=O)C(C)=O`, the “log(activity)” value came to 0.
